From patent publication US12290519B2, “Anti-inflammatory coupling compound drug, and preparation method therefor and use thereof” (COVAL BIOPHARMA (SHANGHAI) CO., LTD., priority 2021, dated 2025) come the findings set out here.

The nature of this data set: Hydrolysis rate / drug release rate of the compounds (release of JAK inhibitor, HPLC). The data set is classed as physicochemical. The settings on record: % release of JAK inhibitor from sample in acetonitrile/water=7/3 (v/v), 37° C. constant temperature shaker, sampled days 1-4, HPLC. As to the method:
Analysis Method for Hydrolysis Rate of Compounds of the Present Invention
1. Preparation of Standard Working Curve Solution
About 10 mg of JAK inhibitors (tofacitinib and baricitinib) reference substances were weighed into a 25 mL volumetric flask, acetonitrile/water=7/3 (v/v) was added to dissolve and dilute to the marked volume, serving as a stock solution. The stock solution was diluted with a suitable dilution factor to obtain linear solutions of each concentration: 0.0002 mg/mL, 0.0004 mg/mL, 0.004 mg/mL, 0.04 mg/mL, and 0.08 mg/mL.
About 10 mg of JAK inhibitors (Oclacitinib, Ruxolitinib, Delgocitinib, and Upadacitinib) reference substances were weighed into a 25 mL volumetric flask, acetonitrile/water=7/3 (v/v) was added to dissolve and dilute to the marked volume, serving as a stock solution. The stock solution was diluted with a suitable dilution factor to obtain linear solutions of each concentration: 0.0002 mg/mL, 0.0004 mg/mL, 0.004 mg/mL, 0.04 mg/mL, and 0.08 mg/mL.
2. Preparation of Sample Solution
About 5 mg of the sample (the compound prepared in the present invention) was weighed into a 20 mL volumetric flask, acetonitrile/water=7/3 (v/v) was added to dissolve and dilute to the marked volume, serving as a stock solution. An appropriate amount of HPLC was loaded as the 0-day sample. The test solution was sealed with a sealing film and placed in a 37° C. constant temperature shaker. The test samples were taken at the same time on days 1, 2, 3, and 4 respectively. the release amount of JAK inhibitor in the sample was calculated according to the sample weight and JAK inhibitor standard curve.
3. Calculation Formula % Release of JAK Inhibitor r=100%×((AJAK Inhibitor−b)/a)/((W/20×M2/M1) wherein • AJAK inhibitor is the peak area of JAK inhibitor in the sample chromatogram • b is the intercept of the standard curve M1 is the molecular weight of the sample a is the slope of the standard curve
W is the sample weight (mg) M2 is the molecular weight of the JAK inhibitor
4. Chromatographic Conditions
As for `CC(C(=O)OCn1ccc2c(N(C)[C@H]3CN(C(=O)CC#N)CC[C@H]3C)ncnc21)c1cccc(C(=O)c2ccccc2)c1` (stereo partly drawn) [Ex. 49, (4-(((3R, 4R)-1-(2-cyanoacetyl)-4-methylpiperidin-3-yl) (methyl)amino)-7H-pyrrolo [2,3-d]pyrimidin-7-yl) methyl 2-(3-benzoylphenyl) propanoate], the “Release Rate (%/day)” value was 0.11 %/day.
The same measure for `CC(C(=O)OCn1ccc2c(N(C)[C@H]3CN(C(=O)CC#N)CC[C@H]3C)ncnc21)c1ccc(-c2ccccc2)c(F)c1` (stereo partly drawn) [Ex. 50, (4-(((3R, 4R)-1-(2-cyanoacetyl)-4-methylpiperidin-3-yl) (methyl)amino)-7H-pyrrolo [2,3-d]pyrimidin-7-yl) methyl 2-(2-fluoro-[1, 1′-biphenyl]-4-yl) propanoate]: 0.05 %/day; for `C[C@@H]1CCN(C(=O)CC#N)C[C@@H]1N(C)c1ncnc2c1ccn2COC(=O)Cc1ccccc1Nc1c(Cl)cccc1Cl` [Ex. 51, (4-(((3R, 4R)-1-(2-cyanoacetyl)-4-methylpiperidin-3-yl) (methyl)amino)-7H-pyrrolo [2,3-d]pyrimidin-7-yl) methyl 2-(2-((2,6-dichlorophenyl)amino)phenyl) acetate]: 0.35 %/day.
The same measure for `CC(C(=O)OCn1ccc2c(N(C)[C@H]3CN(C(=O)CC#N)CC[C@H]3C)ncnc21)c1cccc(Oc2ccccc2)c1` (stereo partly drawn) [Ex. 52, (4-(((3R, 4R)-1-(2-cyanoacetyl)-4-methylpiperidin-3-yl) (methyl)amino)-7H-pyrrolo [2,3-d]pyrimidin-7-yl) methyl 2-(3-phenoxyphenyl) propanoate]: 0.1 %/day; for `CC(C(=O)OCn1ccc2c(N(C)[C@H]3CN(C(=O)CC#N)CC[C@H]3C)ncnc21)c1ccc(CC2CCCC2=O)cc1` (stereo partly drawn) [Ex. 53, (4-(((3R, 4R)-1-(2-cyanoacetyl)-4-methylpiperidin-3-yl) (methyl)amino)-7H-pyrrolo [2,3-d]pyrimidin-7-yl) methyl 2-(4-((2-oxocyclopentyl)methyl)phenyl) propanoate]: 0.06 %/day; for `CC(C(=O)n1ccc2c(-c3cnn([C@H](CC#N)C4CCCC4)c3)ncnc21)c1cccc(Oc2ccccc2)c1` (stereo partly drawn) [Ex. 54, (3R)-3-cyclopentyl-3-(4-(7-(2-(3-phenoxyphenyl)propanoyl)-7H-pyrrolo [2,3-d]pyrimidin-4-yl)-1H-pyrazol-1-yl) propanenitrile]: 4.93 %/day.
The same measure for `COc1ccc2c(c1)c(CC(=O)OCn1ccc3c(N(C)[C@H]4CN(C(=O)CC#N)CC[C@H]4C)ncnc31)c(C)n2C(=O)c1ccc(Cl)cc1` [Ex. 55, (4-(((3R, 4R)-1-(2-cyanoacetyl)-4-methylpiperidin-3-yl) (methyl)amino)-7H-pyrrolo [2,3-d]pyrimidin-7-yl) methyl 2-(1-(4-chlorobenzoyl)-5-methoxy-2-methyl-1H-indol-3-yl) acetate]: 0.16 %/day; for `CC(=O)Oc1ccccc1C(=O)OCn1ccc2c(N(C)[C@H]3CN(C(=O)CC#N)CC[C@H]3C)ncnc21` [Ex. 56, (4-(((3R, 4R)-1-(2-cyanoacetyl)-4-methylpiperidin-3-yl) (methyl)amino)-7H-pyrrolo [2,3-d]pyrimidin-7-yl) methyl 2-acetoxybenzoate]: 0.07 %/day.
`Cc1c(Cl)cccc1Nc1ccccc1C(=O)n1ccc2c(-c3cnn([C@H](CC#N)C4CCCC4)c3)ncnc21` [Ex. 57, (R)-3-(4-(7-(2-((3-chloro-2-methylphenyl)amino)benzoyl)-7H-pyrrolo [2,3-d]pyrimidin-4-yl)-1H-pyrazol-1-yl)-3-cyclopentylpropanenitrile]: the “Release Rate (%/day)” value is 0.57 %/day.
The same measure for `CNS(=O)(=O)C[C@H]1CC[C@H](N(C)c2ncnc3c2ccn3C(=O)Cc2ccc(NC(C)=O)cc2)CC1` [Ex. 58, N-(4-(2-(4-(methyl ((trans)-4-((N-methylsulfamoyl)methyl)cyclohexyl)amino)-7H-pyrrolo [2,3-d]pyrimidin-7-yl)-2-oxoethyl)phenyl) acetamide]: 12.46 %/day; for `CC(=O)Nc1ccc(CC(=O)OCn2ccc3c(N(C)[C@H]4CN(C(=O)CC#N)CC[C@H]4C)ncnc32)cc1` [Ex. 59, (4-(((3R, 4R)-1-(2-cyanoacetyl)-4-methylpiperidin-3-yl) (methyl)amino)-7H-pyrrolo [2,3-d]pyrimidin-7-yl) methyl 2-(4-acetamidophenyl) acetate]: 0.15 %/day; for `CCS(=O)(=O)N1CC(CC#N)(n2cc(-c3ncnc4c3ccn4COC(=O)[C@@H](C)c3ccc(CC(C)C)cc3)cn2)C1` [Ex. 60, Methyl (4-(1-(3-(cyanomethyl)-1-(ethylsulfonyl)azetidin-3-yl)-1H-pyrazol-4-yl)-7H-pyrrolo [2,3-d]pyrimidin-7-yl) (S)-2-(4-isobutylphenyl) propanoate]: less than 0.01 %/day.
Under `CCS(=O)(=O)N1CC(CC#N)(n2cc(-c3ncnc4c3ccn4COC(=O)[C@@H](C)c3ccc4cc(OC)ccc4c3)cn2)C1` [Ex. 61, Methyl (4-(1-(3-(cyanomethyl)-1-(ethylsulfonyl)azetidin-3-yl)-1H-pyrazol-4-yl)-7H-pyrrolo [2,3-d]pyrimidin-7-yl) (S)-2-(6-methoxynaphthalen-2-yl) propanoate] stands less than 0.01 %/day; under `CCS(=O)(=O)N1CC(CC#N)(n2cc(-c3ncnc4c3ccn4COC(=O)C(C)c3cccc(C(=O)c4ccccc4)c3)cn2)C1` (stereo not drawn) [Ex. 62, 4-(1-(3-(cyanomethyl)-1-(ethylsulfonyl)azetidin-3-yl)-1H-pyrazol-4-yl)-7H-pyrrolo [2,3-d] pyrimidin-7-yl) methyl 2-(3-benzoylphenyl) propanoate], 0.01 %/day.
The same measure for `CCc1cccc2c3c([nH]c12)C(CC)(CC(=O)OCn1ccc2c(N(C)[C@H]4CN(C(=O)CC#N)CC[C@H]4C)ncnc21)OCC3` (stereo partly drawn) [Ex. 63, (4-(((3R, 4R)-1-(2-cyanoacetyl)-4-methylpiperidin-3-yl) (methyl)amino)-7H-pyrrolo [2,3-d]pyrimidin-7-yl) methyl 2-(1,8-diethyl-1,3,4,9-tetrahydropyrano [3,4-b]indol-1-yl) acetate]: 0.02 %/day.
Consider `C[C@@H]1CCN(C(=O)CC#N)C[C@@H]1N(C)c1ncnc2c1ccn2COC(=O)[C@@H](NC(=O)OC(C)(C)C)c1ccccc1` [Ex. 64, (4-(((3R, 4R)-1-(2-cyanoacetyl)-4-methylpiperidin-3-yl) (methyl)amino)-7H-pyrrolo [2,3-d]pyrimidin-7-yl) methyl (S)-2-((tert-butoxycarbonyl)amino)-2-phenylacetate], for which the “Release Rate (%/day)” value is reported as 0.88 %/day.
For the molecule `CCC(C(=O)OCn1ccc2c(N(C)[C@H]3CN(C(=O)CC#N)CC[C@H]3C)ncnc21)c1ccc(N2Cc3ccccc3C2=O)cc1` (stereo partly drawn) [Ex. 65, (4-(((3R, 4R)-1-(2-cyanoacetyl)-4-methylpiperidin-3-yl) (methyl)amino)-7H-pyrrolo [2,3-d]pyrimidin-7-yl) methyl 2-(4-(1-oxoisoindol-2-yl)) phenyl) butanoate], the “Release Rate (%/day)” value stood at 0.01 %/day.
In the case of `Cc1c(Cl)cccc1Nc1ccccc1C(=O)OCn1ccc2c(N(C)[C@H]3CN(C(=O)CC#N)CC[C@H]3C)ncnc21` [Ex. 66, (4-(((3R, 4R)-1-(2-cyanoacetyl)-4-methylpiperidin-3-yl) (methyl)amino)-7H-pyrrolo [2,3-d]pyrimidin-7-yl) methyl 2-((3-chloro-2-methylphenyl)amino) benzoate], the “Release Rate (%/day)” value was 0.06 %/day.
The same measure for `Cc1cccc(Nc2ccccc2C(=O)OCn2ccc3c(N(C)[C@H]4CN(C(=O)CC#N)CC[C@H]4C)ncnc32)c1C` [Ex. 67, (4-(((3R, 4R)-1-(2-cyanoacetyl)-4-methylpiperidin-3-yl) (methyl)amino)-7H-pyrrolo [2,3-d]pyrimidin-7-yl) methyl 2-((2,3-dimethylphenyl)amino) benzoate]: 0.02 %/day; for `CNS(=O)(=O)C[C@H]1CC[C@H](N(C)c2ncnc3c2ccn3C(=O)C(C)c2cccc(Oc3ccccc3)c2)CC1` (stereo partly drawn) [Ex. 68, N-methyl-1-((trans)-4-(methyl (7-(2-(3-phenoxyphenyl)propanoyl)-7H-pyrrolo [2,3-d]pyrimidin-4-yl)amino)cyclohexyl) methanesulfonamide]: 10.6 %/day.
Turning to `CCS(=O)(=O)N1CC(CC#N)(n2cc(-c3ncnc4c3ccn4COC(=O)C(C)c3ccc(-c4ccccc4)c(F)c3)cn2)C1` (stereo not drawn) [Ex. 69, Methyl (4-(1-(3-(cyanomethyl)-1-(ethylsulfonyl)azetidin-3-yl)-1H-pyrazol-4-yl)-7H-pyrrolo [2,3-d]pyrimidin-7-yl) 2-(2-fluoro-[1, 1′-biphenyl]-4-yl) propanoate], the “Release Rate (%/day)” value was 0.03 %/day.
